Tested on: wild-type BY4743 and yeast vacuolar amino acid mutants YPQ2, AVT2, AVT6
Test: Yeast dotting growth phenotype on high-concentration theanine medium
Assay type: cell-based
Settings: theanine 50 mM
Experimental: Yeast mutants YPQ2, AVT2, and AVT6 are high-concentration theanine-sensitive strains, and their growth is inhibited in a high-concentration theanine environment, which was used to verify the stress resistance of the selected genes. The YPQ2 strain was streaked on YPDA Agar Medium and cultured upside down in a constant temperature incubator at 28° C. for 2-3 days. A well-grown single colony was picked in a 2 mL centrifuge tube, added with 1 mL of YPDA Liquid Medium, and incubated at 28° C. on a shaker at 180 r/min for one day. 200 μL of well-grown yeast suspension was transferred to 30 mL of YPDA Liquid Medium, and incubated on a shaker at 28° C. and 180 r/min for 12-24 h. […] 500 μL of PEG mixture and 5 μL of DTT (1 M, ready for use) were added and vortexed. […]
A single colony was picked in 20 mL of SD-U […] medium and shaken to an OD600 value of about 1.0 at 28° C. and 180 r/min (for about 48 h); 4 mL of yeast suspension was pipetted and centrifuged at 5,000 rpm for 2 min, the supernatant was discarded (under aseptic operation), cells were resuspended with sterile water, and the OD600 value was detected; the yeast suspension was diluted with sterile water to an OD600 value of 0.6 (the difference between the OD600 values of each sample should not exceed 0.02); (under aseptic operation) the yeast suspension was diluted to 10^0, 10^−1, 10^−2, and 10^−3 in turn. […]

## CCNC(=O)CC[C@H](N)C(=O)O [theanine]
CsVAAT3-transformed yeast mutants (pDR196-CsVAAT3)
  growth of yeast under theanine treatment: normal growth state
wild-type BY4743 and mutants YPQ2, AVT2, AVT6 (empty vector pDR196), solid medium, 30° C., about three days
  growth of yeast under theanine treatment: significantly inhibited

— patent US12729382B2, “Tea plant CsVAAT3 gene and use thereof” (Anhui Agricultural University, priority 2022, dated 2026)
